Here are results for 6 compounds from patent US8367684B2, “Derivatives of 4-(N-azacycloalkyl) anilides as potassium channel modulators” (Valeant Pharmaceuticals International, priority 2007, dated 2013).

The subject of the experiment is potassium ion channels. As to the kind of experiment: Rubidium (Rb+) efflux assay in NGF-differentiated PC-12 cells, potassium channel modulation. The class given is cell-based. The conditions noted are these: depolarization buffer with 15 mM KCl, 10 min at room temperature, read-out: ACTIVITY (EC50, compound's concentration for 50% of maximal Rb+ efflux). As to the method:
Compounds of this invention formula were evaluated as potassium channel modulators by measuring rhubidium release in the following assay.
Methods: PC-12 cells were grown at 37° C. and 5% CO2 in DMEM/F12 Medium supplemented with 10% horse serum, 5% fetal bovine serum, 2 mM glutamine, 100 U/ml penicillin, 100 U/ml streptomycin. They were plated in poly-D-lysine-coated 96-well cell culture microplates at a density of 40,000 cells/well and differentiated with 100 ng/ml NGF-7s for 2-5 days. For the assay, the medium was aspirated and the cells were washed once with 0.2 ml in wash buffer (25 mM Hepes, pH 7.4, 150 mM NaCl, 1 mM MgCl2, 0.8 mM NaH2PO4, 2 mM CaCl2). The cells were then loaded with 0.2 ml Rb^+ loading buffer (wash buffer plus 5.4 mM […], 5 mM glucose) and incubated at 37° C. for 2 h. Attached cells were quickly washed three times with buffer (same as Rb^+ loading buffer, but containing 5.4 mM KCl instead of RbCl) to remove extracellular Rb^+. Immediately following the wash, 0.2 ml of depolarization buffer (wash buffer plus 15 mM KCl) with or without compounds was added to the cells to activate efflux of potassium ion channels. After incubation for 10 min at room temperature, the supernatant was carefully removed and collected. Cells were lysed by the addition of 0.2 ml of lysis buffer (depolarization buffer plus 0.1% Triton X-100) and the cell lysates were also collected. If collected samples were not immediately analyzed for Rb^+ contents by atomic absorption spectroscopy (see below), they were stored at 4° C. without any negative effects on subsequent Rb^+ analysis.
The concentration of Rb^+ in the supernatants (Rb^+Sup) and cell lysates (Rb^+Lys) was quantified using an ICR8000 flame atomic absorption spectrometer (Aurora Biomed Inc., Vancouver, B.C.) under conditions defined by the manufacturer. One 0.05 ml samples were processed automatically from microtiter plates by dilution with an equal volume of Rb^+ sample analysis buffer and injection into an air-acetylene flame. The amount of Rb^+ in the sample was measured by absorption at 780 nm using a hollow cathode lamp as light source and a PMT detector. A calibration curve covering the range 0-5 mg/L Rb^+ in sample analysis buffer was generated with each set of plates. The percent Rb^+ efflux (F) was defined by F=[Rb^+sup/(Rb^+sup+Rb^+Lys)]×100%.
The effect (E) of a compound was defined by: E=[(Fc−Fb)/(Fs−Fb)]×100% where the Fc is the efflux in the presence of compound in depolarization buffer, Fb is the efflux in basal buffer, and Fs is the efflux in depolarization buffer, and Fc is the efflux in the presence of compound in depolarization buffer. The effect (E) and compound concentration relationship was plotted to calculate an EC50 value, a compound's concentration for 50% of maximal Rb^+ efflux. Legend: A: EC50=1 nM-50 nM; B: EC50=50 nM-100 nM; C: EC50=100-200 nM.
On to `Cc1cc(N2CCc3ccccc3C2)nc(C)c1NC(=O)CC(C)(C)C`, for which the EC50 was 0.001 to 0.05 µM. As for `Cc1cc(N2CCc3cc(F)ccc3C2)nc(C)c1NC(=O)CC(C)(C)C`, the figure is 0.001 to 0.05 µM.

On to `Cc1cc(N2CCc3cc(C(F)(F)F)ccc3C2)nc(C)c1NC(=O)CC(C)(C)C`, for which the EC50 was in the range of 0.001 to 0.05 µM.

For `COc1nc(N2CCc3ccccc3C2)nc(OC)c1NC(=O)CC(C)(C)C`, the EC50 was in the range of 0.001 to 0.05 µM. As to `COc1nc(N2CCc3cc(F)ccc3C2)nc(OC)c1NC(=O)CC(C)(C)C`, the EC50 fell in the range of 0.001 to 0.05 µM. With `Cc1nc(N2CCc3ccccc3C2)nc(C)c1NC(=O)CC(C)(C)C`, the EC50 was 0.05 to 0.1 µM.
